Source: patent publication CN110194737A, “一种联水杨醛缩3-氯-2-肼基吡啶席夫碱合成方法与应用” (Harbin University of Science and Technology, priority 2019, dated 2019)

Legend:
[1] = Anti-interference of the probe for Zn2+ in the presence of other metal ions (FIG. 7); details: for fluorescence intensity: EX=350nm, EM=475nm
[2] = Qualitative/selective recognition of metal ions by the probe, Zn2+ (FIG. 6)
[3] = Qualitative/selective recognition of metal ions by the probe, Cd2+ (FIG. 6); details: 100uL of 1×10^-2mol/L Cd2+; probe solution 3mL; EX=350nm, EM=475nm
[4] = Quantitative analysis of Zn2+: linear relation of fluorescence intensity and Zn2+ concentration, detection limit (Examples 8-11, FIG. 5)
[5] = Fluorescence titration of the Schiff base probe with Zn2+ (Examples 2-7, FIG. 4); details: for fluorescence intensity: probe 2×10^-5mol/L in methanol, 3mL, EX=350nm, EM=475nm

With `CC(C)(C)c1cc(C=NNc2ncccc2Cl)c(O)c(-c2cc(C(C)(C)C)cc(C=NNc3ncccc3Cl)c2O)c1` [荧光探针, 5,5'-二叔丁基-2,2'-二羟基联苯-3,3'-二甲醛缩3-氯-2-肼基吡啶席夫碱] the fluorescence intensity ([1]; 100uL Zn2+ plus 100uL Ba2+ (1×10^-2mol/L each)) was 694.5, the fluorescence intensity ([1]; 100uL Zn2+ plus equal volume of Ca2+ (1×10^-2mol/L each)) was 914.6 and the “interference by other metal ions in recognition of Zn2+” value ([1]; other metal ions coexisting with Zn2+) was “可避免其它金属离子共存时产生的干扰,可实现对Zn2+的专一性识别”. For the same compound, the fluorescence intensity ([2]; 100uL of 1×10^-2mol/L Zn2+, probe solution 3mL, EX=350nm, EM=475nm) was 923.5, the “selectivity of recognition of Zn2+” value ([2]; vs 18 other metal ions, 100uL of 1×10^-2mol/L each) was “较好的选择性” and the fluorescence intensity [3] was 300.2. It also gave a fluorescence intensity ([4]; Zn2+ 30μM in the system, EX=350nm, EM=475nm) of 119.8, a fluorescence intensity ([4]; Zn2+ 50μM in the system, EX=350nm, EM=475nm) of 440.2 and a fluorescence intensity ([4]; Zn2+ 70μM in the system, EX=350nm, EM=475nm) of 765.9. The detection limit ([4]; Zn2+, calculated) was 6.05e-08 mol/L, the “linear range of fluorescence intensity vs Zn2+ concentration” value ([4]; good linear relation, EX=350nm, EM=475nm) was 30 to 70 µM and the fluorescence intensity ([5]; 1μL of 1×10^-2mol/L Zn2+ added) was 83.56. For the same compound, the fluorescence intensity ([5]; 6μL of 1×10^-2mol/L Zn2+ added) was 468.2, the fluorescence intensity ([5]; 12μL of 1×10^-2mol/L Zn2+ added) was 852.4 and the fluorescence intensity ([5]; 18μL of 1×10^-2mol/L Zn2+ added) was 952.4. For the same compound, the “visible change under UV lamp” value ([5]; 365nm, after recognition of Zn2+) was “在紫外灯365nm下即可看到明显变化”, the “fluorescence intensity enhancement relative to blank” value ([5]; after recognition of Zn2+ (18μL of 1×10^-2mol/L Zn2+) vs probe blank) was 34 fold and the fluorescence intensity ([5]; probe blank solution without Zn2+, slits 5nm) was 28.02.
